Assay results reported in patent US9856237B2, “Pyrazine derivatives” (TEIJIN PHARMA LIMITED, priority 2014, dated 2018).
pIC50: −log10 of the molar value.

Target: T1, human URAT1 (Homo sapiens, UniProt Q96S37)
T1 construct: Full-length cDNA of human URAT1 (hURAT1); host or cells: HEK 293 cells, stably transfected and selected by Geneticin resistance
T1 sequence (Q96S37 1-553): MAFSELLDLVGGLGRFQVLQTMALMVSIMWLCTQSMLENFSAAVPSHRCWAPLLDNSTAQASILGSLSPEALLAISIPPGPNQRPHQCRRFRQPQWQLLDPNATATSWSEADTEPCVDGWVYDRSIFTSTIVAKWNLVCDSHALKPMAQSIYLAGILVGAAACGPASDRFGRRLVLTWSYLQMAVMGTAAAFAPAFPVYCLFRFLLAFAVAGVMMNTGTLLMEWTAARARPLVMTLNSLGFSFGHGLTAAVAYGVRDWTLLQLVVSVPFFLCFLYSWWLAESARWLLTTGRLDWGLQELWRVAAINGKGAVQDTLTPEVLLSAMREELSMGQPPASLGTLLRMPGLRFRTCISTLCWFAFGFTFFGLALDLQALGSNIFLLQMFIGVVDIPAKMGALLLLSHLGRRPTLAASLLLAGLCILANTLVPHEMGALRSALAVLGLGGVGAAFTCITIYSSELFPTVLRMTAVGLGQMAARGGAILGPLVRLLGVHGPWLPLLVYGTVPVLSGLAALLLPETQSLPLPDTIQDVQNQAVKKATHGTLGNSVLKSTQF
Experiment: Test for inhibition of uric acid transport using human URAT1-expressing cells
Format: cell-based
Conditions: HEK 293 cells expressing human URAT1; 14C-labeled uric acid 25 μM; uptake 37° C. for 5 min; read-out: Inhibitory activity (IC50, concentration at which the uric acid transport rate is inhibited by 50%)
Description: Test for Inhibition of Uric Acid Transport Using Human URAT1-Expressing Cells
A test compound was dissolved in DMSO (produced by Sigma) to a concentration of 20 mM and was subsequently used by adjusting the concentration to a desired value for use.
Full-length cDNA of human URAT1 (hURAT1) (produced by OriGene Technologies, Inc., NCBI Reference Sequence: NM-144585) was subcloned into an expression vector, pCMV6-Kan/Neo (produced by OriGene Technologies, Inc.), and human URAT1 genes were transfected into human embryonic kidney-derived cells (HEK 293 cells) by a liposome method using Lipofectamine 2000 (produced by Invitrogen Corporation), whereupon HEK 293 cells expressing human URAT1 genes were selected on the basis of Geneticin resistance. Functional expression of human URAT1 genes was confirmed by using transport of ^14C-labeled uric acid into the cells as an index.
The HEK 293 cells expressing human URAT1 were seeded in a 24-well cell culture dish to a density of 3×10^5 cells/mL/well and were cultured in Dulbecco's modified Eagle's medium (D-MEM medium) containing 10% fetal bovine serum at 37° C. for 2 days. Thereafter, the following test for inhibition of uric acid transport was performed.
After the medium was removed by aspiration from each well, the cells were replaced with a solution obtained by substituting NaCl in Hanks' Balanced Salt Solution (HBSS) with Na gluconate (hereinafter, HBSS/Na-gluconate), and the cells were preincubated at 37° C. for about 10 minutes. After removing the HBSS/Na-gluconate by aspiration, a ^14C-uric acid solution containing various concentrations of the Example compound listed in Table 4 and a radioactive ligand (^14C-labeled uric acid; final concentration 25 μM) was added, and an uptake reaction was carried out by incubating at 37° C. for 5 min. After the reaction, the ^14C-labeled uric acid was removed by aspiration and the cells were washed three times with ice-cooled HBSS. The HEK 293 cells expressing human URAT1 were lysed in a 0.2 mol/L aqueous NaOH solution (hereafter, the cell sample) and sampled from the well. The cell sample and a liquid scintillation cocktail, ULTIMA GOLD (produced by PerkinElmer, Inc.) were mixed, and the radioactivity was measured by a liquid scintillation counter (manufactured by Beckman Coulter, Inc.).
The uric acid transport rate of the Example compound at each concentration (% of control uptake) was calculated relative to the radioactivity (radioactivity in human URAT1 expressing HEK 293 cells without addition of the Example compound (DMSO addition)) showing URAT1-specific uric acid transport as 100%, and the concentration (IC50) of the Example compound at which the uric acid transport rate is inhibited by 50% was determined. In addition, the symbols (*, **, and ***) in the table represent the following inhibitory activity values: • IC50≦0.2 μM: *** • 0.2 μM<IC50≦2 μM: ** • 2 μM<IC50≦20 μM: *

How did the pIC50 turn out when Cc1nc(-c2cnccn2)n(Cc2cc(Cl)ccc2Cl)c1C(=O)O [Compound A1, 1-(2,5-dichlorobenzyl)-4-methyl-2-(pyrazin-2-yl)-1H-imidazole-5-carboxylic acid] was run?
The pIC50 was ≥ 6.70.

How did the pIC50 turn out when Cc1cncc(-c2nc(C)c(C(=O)O)n2Cc2cc(Cl)ccc2Cl)n1 [Compound A2, 1-(2,5-dichlorobenzyl)-4-methyl-2-(6-methylpyrazin-2-yl)-1H-imidazole-5-carboxylic acid] was run?
Its pIC50 is ≥ 6.70.

How did the pIC50 turn out when CCc1cncc(-c2nc(C)c(C(=O)O)n2Cc2cc(Cl)ccc2Cl)n1 [Compound A3, 1-(2,5-dichlorobenzyl)-2-(6-ethylpyrazin-2-yl)-4-methyl-1H-imidazole-5-carboxylic acid] was run?
The pIC50 was ≥ 6.70.

With Cc1nc(-c2cncc(-c3ccccc3)n2)n(Cc2cc(Cl)ccc2Cl)c1C(=O)O [Compound A4, 1-(2,5-dichlorobenzyl)-4-methyl-2-(6-phenylpyrazin-2-yl)-1H-imidazole-5-carboxylic acid] as the compound, how does the pIC50 read?
The pIC50 was ≥ 6.70.

With COc1cncc(-c2nc(C)c(C(=O)O)n2Cc2cc(Cl)ccc2Cl)n1 [Compound A5, 1-(2,5-dichlorobenzyl)-2-(6-methoxypyrazin-2-yl)-4-methyl-1H-imidazole-5-carboxylic acid] as the compound, how does the pIC50 read?
Its pIC50 is ≥ 6.70.

With Cc1nc(-c2cncc(Oc3ccccc3)n2)n(Cc2cc(Cl)ccc2Cl)c1C(=O)O [Compound A6, 1-(2,5-dichlorobenzyl)-4-methyl-2-(6-phenoxypyrazin-2-yl)-1H-imidazole-5-carboxylic acid] as the compound, how does the pIC50 read?
The pIC50 was ≥ 6.70.

CCOc1cncc(-c2nc(C)c(C(=O)O)n2Cc2cc(Cl)ccc2Cl)n1 [Compound A7, 1-(2,5-dichlorobenzyl)-2-(6-ethoxypyrazin-2-yl)-4-methyl-1H-imidazole-5-carboxylic acid] was tested. Which pIC50 did it give?
Its pIC50 is ≥ 6.70.

With Cc1nc(-c2cncc(C#N)n2)n(Cc2cc(Cl)ccc2Cl)c1C(=O)O [Compound A8, 2-(6-cyanopyrazin-2-yl)-1-(2,5-dichlorobenzyl)-4-methyl-1H-imidazole-5-carboxylic acid] as the compound, how does the pIC50 read?
Its pIC50 is ≥ 6.70.

How did the pIC50 turn out when Cc1nc(-c2cncc(C(C)C)n2)n(Cc2cc(Cl)ccc2Cl)c1C(=O)O [Compound A9, 1-(2,5-dichlorobenzyl)-2-(6-isopropylpyrazin-2-yl)-4-methyl-1H-imidazole-5-carboxylic acid] was run?
Its pIC50 is ≥ 6.70.

With Cc1nc(-c2cncc(C3CC3)n2)n(Cc2cc(Cl)ccc2Cl)c1C(=O)O [Compound A10, 2-(6-cyclopropylpyrazin-2-yl)-1-(2,5-dichlorobenzyl)-4-methyl-1H-imidazole-5-carboxylic acid] as the compound, how does the pIC50 read?
Its pIC50 is ≥ 6.70.

With Cc1nc(-c2cnccn2)n(Cc2cc(Cl)sc2Cl)c1C(=O)O [Compound A11, 1-((2,5-dichlorothiophene-3-yl)methyl)-4-methyl-2-(pyrazin-2-yl)-1H-imidazole-5-carboxylic acid] as the compound, how does the pIC50 read?
Its pIC50 is ≥ 6.70.

How did the pIC50 turn out when Cc1cncc(-c2nc(C)c(C(=O)O)n2Cc2cc(Cl)sc2Cl)n1 [Compound A12, 1-((2,5-dichlorothiophene-3-yl)methyl)-4-methyl-2-(6-methylpyrazin-2-yl)-1H-imidazole-5-carboxylic acid] was run?
The pIC50 was ≥ 6.70.

With COc1cccc(F)c1Oc1cncc(-c2nc(C)c(C(=O)O)n2Cc2cc(Cl)ccc2Cl)n1 [Compound A13] as the compound, how does the pIC50 read?
Its pIC50 is 5.70 to 6.70.

How did the pIC50 turn out when COc1cccc(F)c1Oc1cncc(-c2nc(C)c(C(=O)O)n2Cc2ccccc2)n1 [Compound A14, 1-benzyl-2-(6-(2-fluoro-6-methoxyphenoxy)pyrazin-2-yl)-4-methyl-1H-imidazole-5-carboxylic acid] was run?
Its pIC50 is ≥ 6.70.

With O=C(O)c1ccc(-c2cnccn2)n1Cc1cc(Cl)ccc1Cl [Compound A15, 1-(2,5-dichlorobenzyl)-2-(pyrazin-2-yl)-1H-pyrrole-5-carboxylic acid] as the compound, how does the pIC50 read?
The pIC50 was ≥ 6.70.

Tested on: cebus apella
Experiment: Testing drug efficacy in Cebus apella (uric acid excretion rate)
Format: in vivo
Conditions: 3 mg/kg to 30 mg/kg in 0.5% methylcellulose, from the nasal cavity to the stomach
Description: Testing Drug Efficacy in Cebus Apella A test compound (3 mg/kg to 30 mg/kg) dispersed in a 0.5% methylcellulose solution was administered to cebus apella from the nasal cavity to the stomach using a disposable catheter and a syringe barrel. Blood samples were taken before administration and 30 minutes, 1 hour, 2 hours, 4 hours, 8 hours, 12 hours, and 24 hours after administration; and urine samples were collected for the time intervals of from immediately after to 4 hours after administration, from 4 hours to 8 hours after administration, from 8 hours to 16 hours after administration, and from 16 hours to 24 hours after administration. Concentrations of uric acid and creatinine in the blood and urine samples collected were measured by an automatic analyzer (JEOL Ltd.). Uric acid and creatinine were measured respectively using L-type Wako UA•F (Wako Pure Chemicals Industries, Ltd.) and L-type Creatinine F (Wako Pure Chemicals Industries, Ltd.). Uric acid clearance was calculated from the uric acid concentrations in blood and urine and, similarly, creatinine clearance was calculated from the creatinine concentrations. Based on these values, the uric acid excretion rate was determined according to the following equation: Uric acid excretion rate (%)=(uric acid clearance/creatinine clearance)×100

For Cc1nc(-c2cnccn2)n(Cc2cc(Cl)sc2Cl)c1C(=O)O [Compound A11, 1-((2,5-dichlorothiophene-3-yl)methyl)-4-methyl-2-(pyrazin-2-yl)-1H-imidazole-5-carboxylic acid], which “activity to promote uric acid excretion” value is on record?
The value was “excellent activity”.
